This is an account of results in patent publication US9244073B2, “Assays for detecting enzymatic activity” (Wellstat Diagnostics, LLC, priority 2011, dated 2016).

The test system of assay [1] is FXa. In words: Detecting FXa activity by detection of a neoepitope with TAG Plus anti-FLAG M1 detector antibody (ECL immunoassay). The format is biochemical. An excerpt:
FXa activity can be measured using peptides comprising a FXa recognition site (-IEGR-) (SEQ ID NO:1) at their N-terminus followed by an amino acid sequence which can be cleaved “off” by FXa. For example, peptide sequence III, below, can be cleaved by FXa to produce peptide sequence IV below. The FXa cleavage of the peptide bond after the arginine residue of the -IEGR- sequence (SEQ ID NO:1) produces a free NH2 group at the N-terminal of the peptide sequence (sequence IV) and the peptide sequence becomes a new epitope (neoepitope) after cleavage.
A FXa activity calibrator curve was set up in a 96-well U bottom microtiter plate containing 100 μL of a 3-fold serial dilution of FXa at 500, 167, 55.6, 18.5, 6.17, 2.06 and 0.686 ng/mL in an assay buffer [50 mM Tris-HCl (pH 7.4), 100 mM NaCl, 0.5% BSA, 10 mg/mL ciprofloxacin, 0.5% Tween-20 and 7.0 mM CaCl2] and 50 μL of a master mix of FXa detection reagent containing 200 μg/mL of M280-SA beads, 600 ng/mL of a peptide sequence V and 1000 ng/mL of TAG Plus anti-FLAG® M1 antibody (Example 2) in the same assay buffer. The peptide sequence V comprises peptide sequence III and a sequence HHHHHH(mPeg2)(KLCBiot)-amide (SEQ ID NO:9). The HHHHHH(mPeg2) (SEQ ID NO:9), a mini-PEG molecule with 9 carbon polyethylene molecule, serves as a spacer, which was conjugated with a lysine at its C-terminus. A biotin molecule was conjugated to the primary amine group on the side chain of the lysine. The peptide can be captured through the high affinity interaction between biotin and streptavidin molecule.
The plate was incubated on a hot plate (Digital Heatblock, Cat. 12621-100, VWR International, LLC., West Chester, Pa. 19380) at 37° C. for 10 or 20 minutes. After the incubation, the beads were washed once in 150 μL of the PBS-based buffer solution (Example 1) and recovered by attaching a plate magnet to the 96-well plate (LIFESEP™ 96F, Dexter Magnetic Technologies Inc., Elk Grove Village, Ill. 60007). Beads were resuspended in 150 μL of the PBS-based buffer and read in a M1MR analyzer. […] Under both incubation conditions, FXa activities were detectable at 1.00 ng/mL or lower concentrations of FXa (signal/background ≧3.0). This lower detection limit is unexpectedly much better than that achieved in Example 1.

The test system of assay [2] is FXa. As to the kind of experiment: Detecting FXa activity by detection of a neoepitope, competitive immunoassay format (ECL). The assay is classed as biochemical. The conditions noted are these: for % Signal Decrease / Mean Signal: 15 minutes at 37° C. An excerpt:
Another method for detecting FXa activity uses a competitive immunoassay format. For example, peptide sequence VI, below, comprises a FXa recognition site (-IEGR-) (SEQ ID NO:1) at its N-terminus and the peptide sequence IV-amide (DYKDDDDKGS-amide) (SEQ ID NO:4) at its C-terminus. The FXa cleavage of the peptide bond after the arginine residue of -IEGR- (SEQ ID NO:1) sequence produces a neoepitope (SEQ ID NO:4), which can be measured with a TAG Plus-conjugated peptide (sequence VII) and a capture antibody in a competitive immunoassay format.
A FXa activity calibrator curve was set up in a 96-well U bottom microtiter plate containing 100 μL of a 3-fold serial dilution of FXa at 500, 167, 55.6, 18.5, 6.17, 2.06 and 0.686 ng/mL in the assay buffer (Example 4) and 50 μL of a master mix of FXa detection reagent containing 200 μg/mL of M280-SA beads prebound with biotinylated capture antibody (5.0 μg antibody per 1.0 mg of beads) (anti-FLAG® MD, 200 μg/mL of the NH2-IEGRDYKDDDDKGS-amide (Peptide sequence VI; SEQ ID NO:5) and 100 ng/mL of NH2-DYKDDDDKGS-TAG Plus (Peptide sequence VII; SEQ ID NO:4) in the same assay buffer. The plate was incubated on a hot plate (Example 4) at 37° C. for 15 minutes. After the incubation, the beads were washed once in 150 μL of the PBS-based buffer solution (Example 3) and were resuspended in 150 μL of the PBS-based buffer and read in a M1MR analyzer (BioVeris). FXa activities were detectable at 1.0 ng/mL or lower concentrations which produced about a 10% decrease of the background signals (the sample without FXa).

Setting [3] is: 10 minute incubation, FXa 0.686 ng/mL.
Where [4] appears, read: 10 minute incubation, FXa 2.06 ng/mL.
Setting [5] is: 10 minute incubation, FXa 6.17 ng/mL.
Where [6] appears, read: 10 minute incubation, FXa 18.5 ng/mL.
Setting [7] is: 10 minute incubation, FXa 55.6 ng/mL.
[8] abbreviates: 10 minute incubation, FXa 167 ng/mL.
Setting [9] is: 10 minute incubation, FXa 500 ng/mL.
[10] abbreviates: 20 minute incubation, FXa 0.686 ng/mL.
The mark [11] stands for this setting: 20 minute incubation, FXa 2.06 ng/mL.
Where [12] appears, read: 20 minute incubation, FXa 6.17 ng/mL.
[13] abbreviates: 20 minute incubation, FXa 18.5 ng/mL.
Where [14] appears, read: 20 minute incubation, FXa 55.6 ng/mL.
The mark [15] stands for this setting: 20 minute incubation, FXa 167 ng/mL.
[16] abbreviates: 20 minute incubation, FXa 500 ng/mL.

Primed or numbered codes have the meaning given here. KLCBiot = lysine with long-chain biotin conjugated to the side-chain primary amine (Lysine-Long-Chain-Biotin); mPeg2 = hydrophilic 9-atom polyethylene (PEG) spacer; Bz′ = not defined here

FXa, sequence (P00742 41-179 limits assumed): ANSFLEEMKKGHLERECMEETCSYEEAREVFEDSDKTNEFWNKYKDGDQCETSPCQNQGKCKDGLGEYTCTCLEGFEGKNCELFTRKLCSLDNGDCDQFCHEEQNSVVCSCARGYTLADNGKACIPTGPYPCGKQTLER
FXa, sequence (P00742 235-488 limits assumed): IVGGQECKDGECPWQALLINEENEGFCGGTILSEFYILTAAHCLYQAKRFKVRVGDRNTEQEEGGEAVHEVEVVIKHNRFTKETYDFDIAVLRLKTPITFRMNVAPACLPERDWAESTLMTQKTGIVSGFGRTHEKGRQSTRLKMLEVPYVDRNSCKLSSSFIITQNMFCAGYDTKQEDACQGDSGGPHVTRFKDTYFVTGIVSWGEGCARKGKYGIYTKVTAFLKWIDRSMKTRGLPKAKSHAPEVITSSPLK

Regarding “Bz-IEGRDYKDDDDKGSHHHHHH(mPeg2)(KLCBiot)-amide ({Bz′}-IEGRDYKDDDDKGSHHHHHH-{mPeg2-KLCBiot-NH2}) [Peptide sequence V]”, the “Mean Signal” value in assay [1] (setting [3]) was 856; in assay [1] (setting [4]), 1427; in assay [1] (setting [5]) it was 3105; in assay [1] (setting [6]) it was 8793; in assay [1] (setting [7]), 33734; in assay [1] (setting [8]), 113240. Besides, the “Mean Signal” value is on record as 298048 in assay [1] (setting [9]); 1047 in assay [1] (setting [10]); 2109 in assay [1] (setting [11]); 6035 in assay [1] (setting [12]); 20653 in assay [1] (setting [13]); 73974 in assay [1] (setting [14]). The “Mean Signal” value in assay [1] (setting [15]) stood at 224915; in assay [1] (setting [16]), 497703. Further, the Signal/Background in assay [1] (setting [3]) is 2.5; in assay [1] (setting [4]) it was 4.1; in assay [1] (setting [5]), 9.0; in assay [1] (setting [6]) it was 25; in assay [1] (setting [7]), 98; in assay [1] (setting [8]) it was 328. The Signal/Background in assay [1] (setting [9]) was 864; in assay [1] (setting [10]), 3.3; in assay [1] (setting [11]), 6.6; in assay [1] (setting [12]), 19; in assay [1] (setting [13]), 65; in assay [1] (setting [14]) it was 232. The Signal/Background in assay [1] (setting [15]) is 706; in assay [1] (setting [16]), 1562.

In the case of “NH2-IEGRDYKDDDDKGS-amide (H-IEGRDYKDDDDKGS-NH2) [Peptide sequence VI]”, the “decrease of the background signals at the detectable FXa concentration” value in assay [2] (FXa 1.0 ng/mL or lower, background = sample without FXa) is given as ~10%. Also, the “% Signal Decrease” value in assay [2] (Xa 0.686 ng/mL) is −8.5%; in assay [2] (Xa 2.06 ng/mL), −22%; in assay [2] (Xa 6.17 ng/mL), −42%; in assay [2] (Xa 18.5 ng/mL), −60%; in assay [2] (Xa 55.6 ng/mL) it was −75%; in assay [2] (Xa 167 ng/mL), −84%. In addition, the “% Signal Decrease” value in assay [2] (Xa 500 ng/mL) is listed as −89%. Besides, the “Mean Signal” value in assay [2] (Xa 0.686 ng/mL) came out at 84026; in assay [2] (Xa 2.06 ng/mL), 71945; in assay [2] (Xa 6.17 ng/mL) it was 52963; in assay [2] (Xa 18.5 ng/mL), 36383; in assay [2] (Xa 55.6 ng/mL) it was 22509; in assay [2] (Xa 167 ng/mL), 14300. The “Mean Signal” value in assay [2] (Xa 500 ng/mL) was found to be 9830.
